Key:
Format in all cases: in vivo
[1] = system: Barnyardgrass; assay: pre-emergence herbicide test; conditions: Echinochloa crus-galli, pre-emergence, 0.25 lb/A; read-out: % plant inhibition
Procedure, shortened: (§1)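 Herbicidal effect was assessed as percent inhibition about 14 days after sowing. A known amount of compound was added to the covering topsoil, and the pans were subirrigated in a greenhouse.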

[2] = system: Bedstraw Catchweed; assay: pre-emergence herbicide test; conditions: Galium aparine, pre-emergence, 0.25 lb/A; read-out: % plant inhibition
Procedure, shortened: as §1

[3] = system: Birdseye Speedwell; assay: pre-emergence herbicide test; conditions: pre-emergence, 0.25 lb/A; read-out: % plant inhibition
Procedure, shortened: as §1

[4] = system: Blackgrass; assay: pre-emergence herbicide test; conditions: Alopecurus myosuroides, pre-emergence, 0.25 lb/A; read-out: % plant inhibition
Procedure, shortened: as §1

[5] = system: Cocklebur; assay: pre-emergence herbicide test; conditions: Xanthium strumarium, pre-emergence, 0.25 lb/A; read-out: % plant inhibition
Procedure, shortened: as §1

[6] = system: Common Chickweed; assay: pre-emergence herbicide test; conditions: pre-emergence, 0.25 lb/A; read-out: % plant inhibition
Procedure, shortened: as §1

[7] = system: Corn; assay: pre-emergence herbicide test; conditions: Zea mays, pre-emergence, 0.25 lb/A; read-out: % plant inhibition
Procedure, shortened: as §1

[8] = system: Downy Brome; assay: pre-emergence herbicide test; conditions: Bromus tectorum, pre-emergence, 0.25 lb/A; read-out: % plant inhibition
Procedure, shortened: as §1

[9] = system: Giant Foxtail; assay: pre-emergence herbicide test; conditions: Setaria faberi, pre-emergence, 0.25 lb/A; read-out: % plant inhibition
Procedure, shortened: as §1

[10] = system: Green Foxtail; assay: pre-emergence herbicide test; conditions: Setaria viridis, pre-emergence; 0.25 lb/A; read-out: % plant inhibition
Procedure, shortened: as §1

[11] = system: Morning Glory; assay: pre-emergence herbicide test; conditions: Ipomoea, pre-emergence, 0.25 lb/A; read-out: % plant inhibition
Procedure, shortened: as §1

[12] = system: Rape; assay: pre-emergence herbicide test; conditions: pre-emergence, 0.25 lb/A; read-out: % plant inhibition
Procedure, shortened: as §1

[13] = system: Seedling Johnsongrass; assay: pre-emergence herbicide test; conditions: Sorghum halepense, pre-emergence, 0.25 lb/A; read-out: % plant inhibition
Procedure, shortened: as §1

[14] = system: Soybean; assay: pre-emergence herbicide test; conditions: Glycine max, pre-emergence, 0.25 lb/A; read-out: % plant inhibition
Procedure, shortened: as §1

[15] = system: Velvetleaf; assay: pre-emergence herbicide test; conditions: Abutilon theophrasti, pre-emergence, 0.25 lb/A; read-out: % plant inhibition
Procedure, shortened: as §1

[16] = system: Wheat; assay: pre-emergence herbicide test; conditions: Triticum aestivum, pre-emergence, 0.25 lb/A; read-out: % plant inhibition
Procedure, shortened: as §1

[17] = system: Wild Oats; assay: pre-emergence herbicide test; conditions: Avena fatua, pre-emergence, 0.25 lb/A; read-out: % plant inhibition
Procedure, shortened: as §1

[18] = system: Barnyardgrass; assay: post-emergence herbicide test; conditions: Echinochloa crus-galli, post-emergence, 0.25 lb/A; read-out: % plant inhibition
Procedure, shortened: (§2)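 Percent inhibition of each species scored after post-emergence spraying of two- to three-week-old greenhouse plants. Spray solution carried about 0.4% by volume emulsifier, delivered by atomizer at 170.3 kPa (10 psig) and 1870 L/Ha total volume.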

[19] = system: Bedstraw Catchweed; assay: post-emergence herbicide test; conditions: Galium aparine, post-emergence, 0.25 lb/A; read-out: % plant inhibition
Procedure, shortened: as §2

[20] = system: Birdseye Speedwell; assay: post-emergence herbicide test; conditions: post-emergence, 0.25 lb/A; read-out: % plant inhibition
Procedure, shortened: as §2

[21] = system: Blackgrass; assay: post-emergence herbicide test; conditions: Alopecurus myosuroides, post-emergence, 0.25 lb/A; read-out: % plant inhibition
Procedure, shortened: as §2

[22] = system: Cocklebur; assay: post-emergence herbicide test; conditions: Xanthium strumarium, post-emergence, 0.25 lb/A; read-out: % plant inhibition
Procedure, shortened: as §2

[23] = system: Common Chickweed; assay: post-emergence herbicide test; conditions: post-emergence, 0.25 lb/A; read-out: % plant inhibition
Procedure, shortened: as §2

[24] = system: Corn; assay: post-emergence herbicide test; conditions: Zea mays, post-emergence, 0.25 lb/A; read-out: % plant inhibition
Procedure, shortened: as §2

[25] = system: Downy Brome; assay: post-emergence herbicide test; conditions: Bromus tectorum, post-emergence, 0.25 lb/A; read-out: % plant inhibition
Procedure, shortened: as §2

[26] = system: Giant Foxtail; assay: post-emergence herbicide test; conditions: Setaria faberi, post-emergence, 0.25 lb/A; read-out: % plant inhibition
Procedure, shortened: as §2

[27] = system: Green Foxtail; assay: post-emergence herbicide test; conditions: Setaria viridis, post-emergence, 0.25 lb/A; read-out: % plant inhibition
Procedure, shortened: as §2

[28] = system: Morning Glory; assay: post-emergence herbicide test; conditions: Ipomoea, post-emergence, 0.25 lb/A; read-out: % plant inhibition
Procedure, shortened: as §2

[29] = system: Rape; assay: post-emergence herbicide test; conditions: post-emergence, 0.25 lb/A; read-out: % plant inhibition
Procedure, shortened: as §2

[30] = system: Seedling Johnsongrass; assay: post-emergence herbicide test; conditions: Sorghum halepense, post-emergence, 0.25 lb/A; read-out: % plant inhibition
Procedure, shortened: as §2

[31] = system: Soybean; assay: post-emergence herbicide test; conditions: Glycine max, post-emergence, 0.25 lb/A; read-out: % plant inhibition
Procedure, shortened: as §2

[32] = system: Velvetleaf; assay: post-emergence herbicide test; conditions: Abutilon theophrasti, post-emergence, 0.25 lb/A; read-out: % plant inhibition
Procedure, shortened: as §2

[33] = system: Wheat; assay: post-emergence herbicide test; conditions: Triticum aestivum, post-emergence, 0.25 lb/A; read-out: % plant inhibition
Procedure, shortened: as §2

[34] = system: Wild Oats; assay: post-emergence herbicide test; conditions: Avena fatua, post-emergence, 0.25 lb/A; read-out: % plant inhibition
Procedure, shortened: as §2

Cc1c(-c2cc(CSCC(C)C)c(Cl)cc2F)nn(C)c1C(F)(F)F [Compound 32]
inhibition at 280.212 g/ha [1]: 5%
inhibition at 280.212 g/ha [2]: 5%
inhibition at 280.212 g/ha [3]: 45%
inhibition at 280.212 g/ha [4]: 10%
inhibition at 280.212 g/ha [5]: 25%
inhibition at 280.212 g/ha [6]: 5%
inhibition at 280.212 g/ha [7]: 5%
inhibition at 280.212 g/ha [8]: 0%
inhibition at 280.212 g/ha [9]: 65%
inhibition at 280.212 g/ha [10]: 40%
inhibition at 280.212 g/ha [11]: 10%
inhibition at 280.212 g/ha [12]: 5%
inhibition at 280.212 g/ha [13]: 85%
inhibition at 280.212 g/ha [14]: 8%
inhibition at 280.212 g/ha [15]: 25%
inhibition at 280.212 g/ha [16]: 0%
inhibition at 280.212 g/ha [17]: 0%
inhibition at 280.212 g/ha [18]: 35%
inhibition at 280.212 g/ha [19]: 45%
inhibition at 280.212 g/ha [20]: 90%
inhibition at 280.212 g/ha [21]: 25%
inhibition at 280.212 g/ha [22]: 65%
inhibition at 280.212 g/ha [23]: 20%
inhibition at 280.212 g/ha [24]: 15%
inhibition at 280.212 g/ha [25]: 25%
inhibition at 280.212 g/ha [26]: 45%
inhibition at 280.212 g/ha [27]: 65%
inhibition at 280.212 g/ha [28]: 40%
inhibition at 280.212 g/ha [29]: 50%
inhibition at 280.212 g/ha [30]: 45%
inhibition at 280.212 g/ha [31]: 20%
inhibition at 280.212 g/ha [32]: 85%
inhibition at 280.212 g/ha [33]: 15%
inhibition at 280.212 g/ha [34]: 20%

Cc1cc(-c2nn(C)c(C(F)(F)F)c2C)c(O)cc1Cl [Compound 16]
inhibition at 280.212 g/ha [1]: 0%
inhibition at 280.212 g/ha [2]: 45%
inhibition at 280.212 g/ha [3]: 100%
inhibition at 280.212 g/ha [4]: 15%
inhibition at 280.212 g/ha [5]: 0%
inhibition at 280.212 g/ha [6]: 95%
inhibition at 280.212 g/ha [7]: 0%
inhibition at 280.212 g/ha [8]: 20%
inhibition at 280.212 g/ha [9]: 0%
inhibition at 280.212 g/ha [10]: 10%
inhibition at 280.212 g/ha [11]: 0%
inhibition at 280.212 g/ha [12]: 55%
inhibition at 280.212 g/ha [13]: 0%
inhibition at 280.212 g/ha [14]: 0%
inhibition at 280.212 g/ha [15]: 0%
inhibition at 280.212 g/ha [16]: 0%
inhibition at 280.212 g/ha [17]: 20%
inhibition at 280.212 g/ha [18]: 0%
inhibition at 280.212 g/ha [19]: 25%
inhibition at 280.212 g/ha [20]: 30%
inhibition at 280.212 g/ha [21]: 5%
inhibition at 280.212 g/ha [22]: 0%
inhibition at 280.212 g/ha [23]: 50%
inhibition at 280.212 g/ha [24]: 0%
inhibition at 280.212 g/ha [25]: 0%
inhibition at 280.212 g/ha [26]: 0%
inhibition at 280.212 g/ha [27]: 0%
inhibition at 280.212 g/ha [28]: 5%
inhibition at 280.212 g/ha [29]: 0%
inhibition at 280.212 g/ha [30]: 0%
inhibition at 280.212 g/ha [31]: 0%
inhibition at 280.212 g/ha [32]: 0%
inhibition at 280.212 g/ha [33]: 0%
inhibition at 280.212 g/ha [34]: 0%

Cc1c(-c2cc(C(=O)OCc3ccco3)c(Cl)cc2F)nn(C)c1C(F)(F)F [Compound 57]
inhibition at 280.212 g/ha [1]: 50%
inhibition at 280.212 g/ha [2]: 80%
inhibition at 280.212 g/ha [3]: 60%
inhibition at 280.212 g/ha [4]: 15%
inhibition at 280.212 g/ha [5]: 10%
inhibition at 280.212 g/ha [6]: 20%
inhibition at 280.212 g/ha [7]: 0%
inhibition at 280.212 g/ha [8]: 20%
inhibition at 280.212 g/ha [9]: 10%
inhibition at 280.212 g/ha [10]: 85%
inhibition at 280.212 g/ha [11]: 90%
inhibition at 280.212 g/ha [12]: 0%
inhibition at 280.212 g/ha [13]: 15%
inhibition at 280.212 g/ha [14]: 0%
inhibition at 280.212 g/ha [15]: 90%
inhibition at 280.212 g/ha [16]: 0%
inhibition at 280.212 g/ha [17]: 5%
inhibition at 280.212 g/ha [18]: 35%
inhibition at 280.212 g/ha [19]: 40%
inhibition at 280.212 g/ha [20]: 100%
inhibition at 280.212 g/ha [21]: 15%
inhibition at 280.212 g/ha [22]: 85%
inhibition at 280.212 g/ha [23]: 55%
inhibition at 280.212 g/ha [24]: 3%
inhibition at 280.212 g/ha [25]: 15%
inhibition at 280.212 g/ha [26]: 15%
inhibition at 280.212 g/ha [27]: 40%
inhibition at 280.212 g/ha [28]: 50%
inhibition at 280.212 g/ha [29]: 15%
inhibition at 280.212 g/ha [30]: 35%
inhibition at 280.212 g/ha [31]: 17%
inhibition at 280.212 g/ha [32]: 100%
inhibition at 280.212 g/ha [33]: 8%
inhibition at 280.212 g/ha [34]: 25%
